Source: US12365687B2 (Hoffmann-La Roche Inc., priority 2021, dated 2025)

How the values were obtained:
[1] = target: human GABAA α1β3γ2 receptor (Homo sapiens (Human), UniProt P14867+P18507); experiment: Radioligand binding assay for γ2-containing GABAA subtypes, [3H]Flumazenil competition (α1β3γ2); conditions: for γ2/γ1 Selectivity Ratio: Ki α1β3γ2 (nM)/Ki α2β2γ1 (nM); for LogSel: Log[Ki α1β3γ2 (nM)/Ki α2β2γ1 (nM)]
[2] = target: human GABAA α5β2γ1 receptor (Homo sapiens (Human), UniProt P31644+Q8N1C3); experiment: Radioligand binding assay for γ1-containing GABAA subtypes, [3H]RO7239181 competition (α5β2γ1)
[3] = target: human GABAA α2β2γ1 receptor (Homo sapiens (Human), UniProt P47869+Q8N1C3); experiment: Radioligand binding assay for γ1-containing GABAA subtypes, [3H]RO7239181 competition (α2β2γ1)
[4] = target: α2β2γ1 GABAA receptor subtype (Homo sapiens (Human), UniProt P47869+Q8N1C3); experiment: Two-electrode voltage clamp electrophysiology in Xenopus oocytes expressing GABAA receptors (modulation of GABA EC20 current); assay type: cell-based; conditions: for Efficacy (GABA)%: % modulation of GABA EC20 = 100*(Fold increase-1), α2β2γ1 oocytes, compound at approx. 30-fold Ki; for Fold increase h-GABA-A α2β2γ1 oocyte @ 30-fold Ki: Xenopus oocytes expressing α2β2γ1, compound at approx. 30-fold its Ki α2β2γ1, GABA EC20 current
In short: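 Two-electrode voltage clamp at −80 mV, room temperature, 3-5 days after mRNA injection into oocytes. GABA applied at EC20 for 1.5 min, twice, with compound during second application; at least 3 oocytes per concentration. Efficacy = extremum of point-by-point current ratio, expressed as 100×(fold increase−1).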

[5] = Ki h-GABAA α2β2γ1, [3H]RO7239181 competition binding, human GABAA α2β2γ1
[6] = Ki h-GABAA α2β2γ1, displacement of [3H]RO7239181, membranes of HEK293F cells expressing human receptors, means of two determinations

Row | SMILES | Ki [1] [nM] | γ2/γ1 Selectivity Ratio [1] | LogSel [1] | Ki [2] [nM] | Ki [3, 5] [nM] | Ki [3, 6] [nM] | Efficacy (GABA)% [4] [%] | Fold increase h-GABA-A α2β2γ1 oocyte @ 30-fold Ki [4]
1 | C[C@@H]1N=C(c2c(F)cccc2F)c2c(ccc(C(F)(F)F)c2Cl)-n2nc(C(=O)N3CC(C(F)F)C3)nc21 [Example 122, [(4S)-7-chloro-6-(2,6-difluorophenyl)-4-methyl-8-(trifluoromethyl)-4H-[1,2,4]triazolo[1,5-a][1,4]benzodiazepin-2-yl]-[3-(difluoromethyl)azetidin-1-yl]methanone] | 3050 | 287.8 | 2.46 | 3.82 | 10.6 | 10.6 | 91 | 1.91
2 | C[C@@H]1N=C(c2c(F)cccc2F)c2c(ccc(Cl)c2Cl)-n2nc(C(=O)N3CC4(CCOCC4)C3)nc21 [Example 99, [(4S)-7,8-dichloro-6-(2,6-difluorophenyl)-4-methyl-4H-[1,2,4]triazolo[1,5-a][1,4]benzodiazepin-2-yl]-(7-oxa-2-azaspiro[3.5]nonan-2-yl)methanone] | 1550 | 348.9 | 2.54 | 3.29 | 4.5 | 4.45 | 52 | 1.52
3 | C[C@@H]1N=C(c2ncccc2F)c2c(ccc(Cl)c2Cl)-n2nc(C(=O)N3CCC3)nc21 [Example 42, azetidin-1-yl-[(4S)-7,8-dichloro-6-(3-fluoro-2-pyridyl)-4-methyl-4H-[1,2,4]triazolo[1,5-a][1,4]benzodiazepin-2-yl]methanone] | 2630 | 52.5 | 1.72 | 4.24 | 50.1 | 50.1 | 114 | 2.14
4 | Cc1cn2c(n1)[C@H](C)N=C(c1c(F)cccc1F)c1c-2ccc(C(F)(F)F)c1Cl [Example 148, (4S)-7-chloro-6-(2,6-difluorophenyl)-2,4-dimethyl-8-(trifluoromethyl)-4H-imidazo[1,2-a][1,4]benzodiazepine] | 866 | 84.7 | 1.93 | 2.1 | 10.2 | 10.2 | 73 | 1.73
5 | [2H]C([2H])([2H])NC(=O)c1nc2n(n1)-c1ccc(C(F)(F)F)c(Cl)c1C(c1c(F)cccc1F)=N[C@H]2C [Example 34, (4S)-7-chloro-6-(2,6-difluorophenyl)-4-methyl-N-(trideuteriomethyl)-8-(trifluoromethyl)-4H-[1,2,4]triazolo[1,5-a][1,4]benzodiazepine-2-carboxamide] | 2180 | 152.4 | 2.18 | 2.11 | 14.3 | 14.3 | 71 | 1.71
6 | C[C@@H]1N=C(c2ncccc2F)c2c(ccc(C(F)(F)F)c2Cl)-n2nc(C(=O)N3CC4(COC4)C3)nc21 [Example 112, [(4S)-7-chloro-6-(3-fluoro-2-pyridyl)-4-methyl-8-(trifluoromethyl)-4H-[1,2,4]triazolo[1,5-a][1,4]benzodiazepin-2-yl]-(2-oxa-6-azaspiro[3.3]heptan-6-yl)methanone] | > 30000 | 484.1 | 2.68 | 9.85 | 62 | 62 | 136 | 2.36
7 | C[C@@H]1N=C(c2ncccc2F)c2c(ccc(C(F)(F)F)c2Cl)-n2cc(C(=O)NCCO)nc21 [Example 141, (4S)-7-chloro-6-(3-fluoro-2-pyridyl)-N-(2-hydroxyethyl)-4-methyl-8-(trifluoromethyl)-4H-imidazo[1,2-a][1,4]benzodiazepine-2-carboxamide] | 12200 | 218.4 | 2.34 | 12.4 | 55.9 | 55.9 | 112 | 2.12
8 | C[C@@H]1N=C(c2c(F)cccc2F)c2c(ccc(Cl)c2Cl)-n2nc(C(=O)NCCF)nc21 [Example 30, (4S)-7,8-dichloro-6-(2,6-difluorophenyl)-N-(2-fluoroethyl)-4-methyl-4H-[1,2,4]triazolo[1,5-a][1,4]benzodiazepine-2-carboxamide] | 660 | 91.5 | 1.96 | 1.39 | 7.2 | 7.21 | 78 | 1.78
9 | C[C@@H]1N=C(c2ncccc2F)c2c(ccc(Br)c2Cl)-n2nc(C(=O)N3CCC3)nc21 [Example 48, azetidin-1-yl-[(4S)-8-bromo-7-chloro-6-(3-fluoro-2-pyridyl)-4-methyl-4H-[1,2,4]triazolo[1,5-a][1,4]benzodiazepin-2-yl]methanone] | 1310 | 70.2 | 1.85 | 3.22 | 18.6 | 18.6 | 94 | 1.94
10 | Cc1cn2c(n1)[C@H](C)N=C(c1ncccc1F)c1c-2ccc(C(F)(F)F)c1Cl [Example 139, (4S)-7-chloro-6-(3-fluoro-2-pyridyl)-2,4-dimethyl-8-(trifluoromethyl)-4H-imidazo[1,2-a][1,4]benzodiazepine] | 3060 | 99.6 | 2.00 | 5.54 | 30.8 | 30.8 | 149 | 2.49
11 | C[C@@H]1N=C(c2ncccc2F)c2c(ccc(Cl)c2Cl)-n2nc(C(=O)NC3CC3)nc21 [Example 88, (4S)-7,8-dichloro-N-cyclopropyl-6-(3-fluoro-2-pyridyl)-4-methyl-4H-[1,2,4]triazolo[1,5-a][1,4]benzodiazepine-2-carboxamide] | 2820 | 31.2 | 1.49 | 10.1 | 90.6 | 90.6 | 162 | 2.62
12 | COC1CN(C(=O)c2nc3n(n2)-c2ccc(Cl)c(Cl)c2C(c2ncccc2F)=N[C@H]3C)C1 [Example 38, [(4S)-7,8-dichloro-6-(3-fluoro-2-pyridyl)-4-methyl-4H-[1,2,4]triazolo[1,5-a][1,4]benzodiazepin-2-yl]-(3-methoxyazetidin-1-yl)methanone] | 2200 | 77.8 | 1.89 | 4.46 | 28.2 | 28.2 | 116 | 2.16
13 | C[C@@H]1N=C(c2ncccc2F)c2c(ccc(C(F)(F)F)c2Cl)-n2cc(C(=O)N[C@H]3C[C@H](O)C3)nc21 [Example 165, (4S)-7-chloro-6-(3-fluoro-2-pyridyl)-N-(trans-3-hydroxycyclobutyl)-4-methyl-8-(trifluoromethyl)-4H-imidazo[1,2-a][1,4]benzodiazepine-2-carboxamide] | 7770 | 179.6 | 2.25 | 9.55 | 36.2 | 43.3 | 183 | 2.83
14 | C[C@@H]1N=C(c2c(F)cccc2F)c2c(ccc(Cl)c2Cl)-n2nc(NC(=O)N3CC(F)C3)nc21 [Example 57, 3-fluoro-N-[(4S)-7,8-dichloro-6-(2,6-difluorophenyl)-4-methyl-4H-[1,2,4]triazolo[1,5-a][1,4]benzodiazepin-2-yl]azetidine-1-carboxamide] | 822 | 46.2 | 1.67 | 1.84 | 17.8 | 17.8 | 76 | 1.76
15 | C[C@@H]1N=C(c2c(F)cccc2F)c2c(ccc(Cl)c2Cl)-n2nc(C(=O)N3CC4(CCCCO4)C3)nc21 [Example 96, [(4S)-7,8-dichloro-6-(2,6-difluorophenyl)-4-methyl-4H-[1,2,4]triazolo[1,5-a][1,4]benzodiazepin-2-yl]-(5-oxa-2-azaspiro[3.5]nonan-2-yl)methanone] | 933 | 145.4 | 2.16 | 2.65 | 6.4 | 6.42 | 52 | 1.52
16 | Cc1cnc2n1-c1ccc(Cl)c(Cl)c1C(c1c(F)cccc1F)=N[C@H]2C [Example 111, (4S)-7,8-dichloro-6-(2,6-difluorophenyl)-1,4-dimethyl-4H-imidazo[1,2-a][1,4]benzodiazepine] | 235 | 45.6 | 1.66 | 1.24 | 5.2 | 5.16 | 35 | 1.35
